Measured values reported in article PMC9699089 (Pathogens, 2022).
Counter-ions that a name gives are not always drawn.

Columns and labels:
[1] = tested on: L. donovani (MHOM/IN/00/DEVI) promastigotes; experiment: In vitro antileishmanial activity on promastigotes, MTT assay; type: cell-based; details: Leishmania donovani, 72 h incubation, mean +/- SD of three independent experiments
Protocol: L. donovani (MHOM/IN/00/DEVI) used in this study was provided by the CNR Leishmania (Montpellier, France). The effects of the tested compounds on the growth of L. donovani (MHOM/IN/00/DEVI) promastigotes were assessed by MTT assay. Briefly, promastigotes in log-phase in Schneider’s medium supplemented with 20% fetal calf serum (FCS), 2 mM L-glutamine and antibiotics (100 U/mL penicillin and 100 µg/mL streptomycin), were incubated at an average density of 10^6 parasites/mL in sterile 96-well plates with various concentrations of compounds previously dissolved in DMSO (final concentration less than 0.5% v/v), in duplicate. […] Duplicate assays were performed for each sample. After the 72 h incubation period at 27 °C, parasite metabolic activity was determined. Each well was microscopically examined for precipitate formation. To each well was added 10 µL of 10 mg/mL MTT [3-(4,5-dimethylthiazol-2-yl)-2,5-diphenyltetrazolium bromide)] solution followed by 4 h incubation time. The enzyme reaction was stopped by addition of 100 µL of 50% isopropanol/10% sodium dodecyl sulfate. Plates were vigorously shaken (300 rpm) for 10 min, and the absorbance was measured at 570 nm with 630 nm as reference wavelength in a BIOTEK ELx808 Absorbance Microplate Reader (Agilent Technologies, Les Ulis, France). […] IC50 of the parasite’s growth (half maximal inhibitory concentration or IC50 values) were then calculated from the obtained experimental results using a previously described regression program. IC50 values were calculated from three independent experiments.

[2] = tested on: T. brucei brucei AnTat 1.9; experiment: In vitro antitrypanosomal activity, Alamar Blue assay; type: cell-based, Trypanosoma brucei brucei; details: Trypanosoma brucei, slender bloodstream trypomastigotes, AnTat 1.9 strain; mean +/- SD of three independent experiments; read-out: Trypanosoma brucei brucei IC50 Values Trypanos Antat 1.9
Protocol: The effects of the tested compounds on the growth of T. brucei brucei were assessed using an Alamar Blue® assay described by Räz et al. T. brucei brucei AnTat 1.9 ([…], Belgium) was cultured in MEM with Earle's salts, supplemented according to the protocol of Baltz et al. […] All doses were tested in duplicate. Appropriate controls treated with solvents 0.9% NaCl or DMSO or with suramin, pentamidine, eflornithine, and fexinidazole (reference drugs purchased from Sigma Aldrich and Fluorochem, UK) were added to each set of experiments. After 69 h incubation period at 37 °C, 10 μL of the viability marker Alamar Blue (Fisher) was added to each well, and the plates were incubated for 5 h. The plates were read in a PerkinElmer ENSPIRE (Germany) microplate reader using an excitation wavelength of 530 nm and an emission wavelength of 590 nm.

Row | Structure (SMILES) | melting point [°C] | other results
1 | CN(C)CCNCc1cc(-c2ccccc2)c2ccc3c(-c4ccccc4)cc(CNCCN(C)C)nc3c2n1 (as salt: ammonium) [Compound 1a, 2,9-Bis[(2-dimethylaminoethyl)aminomethyl]-4,7-diphenyl-1,10-phenanthroline] | 179 to 181 | –
2 | CN(C)CCCNCc1cc(-c2ccccc2)c2ccc3c(-c4ccccc4)cc(CNCCCN(C)C)nc3c2n1 (as salt: ammonium) [Compound 1b, 2,9-Bis[(3-dimethylaminopropyl)aminomethyl]-4,7-diphenyl-1,10-phenanthroline] | 161 to 163 | –
3 | CN(C)CCCCNCc1cc(-c2ccccc2)c2ccc3c(-c4ccccc4)cc(CNCCCCN(C)C)nc3c2n1 (as salt: ammonium) [Compound 1c, 2,9-Bis[(4-dimethylaminobutyl)aminomethyl]-4,7-diphenyl-1,10-phenanthroline] | 111 to 113 | –
4 | CN(C)CCCCCNCc1cc(-c2ccccc2)c2ccc3c(-c4ccccc4)cc(CNCCCCCN(C)C)nc3c2n1 (as salt: ammonium) [Compound 1d, 2,9-Bis[(5-dimethylaminopentyl)aminomethyl]-4,7-diphenyl-1,10-phenanthroline] | 119 to 121 | –
5 | CN1CCN(CCNCc2cc(-c3ccccc3)c3ccc4c(-c5ccccc5)cc(CNCCN5CCN(C)CC5)nc4c3n2)CC1 (as salt: ammonium) [Compound 1e] | 185 to 187 | –
6 | CN1CCN(CCCNCc2cc(-c3ccccc3)c3ccc4c(-c5ccccc5)cc(CNCCCN5CCN(C)CC5)nc4c3n2)CC1 (as salt: ammonium) [Compound 1f] | 205 to 207 | –
7 | CN1CCN(CCCCNCc2cc(-c3ccccc3)c3ccc4c(-c5ccccc5)cc(CNCCCCN5CCN(C)CC5)nc4c3n2)CC1 (as salt: ammonium) [Compound 1g] | 207 to 209 | –
8 | c1ccc(-c2cc(CNCCN3CCOCC3)nc3c2ccc2c(-c4ccccc4)cc(CNCCN4CCOCC4)nc23)cc1 (as salt: ammonium) [Compound 1h] | 194 to 196 | –
9 | c1ccc(-c2cc(CNCCCN3CCOCC3)nc3c2ccc2c(-c4ccccc4)cc(CNCCCN4CCOCC4)nc23)cc1 (as salt: ammonium) [Compound 1i] | 174 to 176 | –
10 | c1ccc(-c2cc(CNCCN3CCCCC3)nc3c2ccc2c(-c4ccccc4)cc(CNCCN4CCCCC4)nc23)cc1 (as salt: ammonium) [Compound 1j] | 192 to 194 | –
11 | c1ccc(-c2cc(CNCCCN3CCCCC3)nc3c2ccc2c(-c4ccccc4)cc(CNCCCN4CCCCC4)nc23)cc1 (as salt: ammonium) [Compound 1k] | 141 to 143 | –
12 | c1ccc(-c2cc(CNCCCN3CCCC3)nc3c2ccc2c(-c4ccccc4)cc(CNCCCN4CCCC4)nc23)cc1 (as salt: ammonium) [Compound 1l] | 145 to 147 | –
13 | c1ccc(-c2cc(CNCCc3ccccn3)nc3c2ccc2c(-c4ccccc4)cc(CNCCc4ccccn4)nc23)cc1 (as salt: ammonium) [Compound 1m] | 165 to 167 | –
14 | c1ccc(-c2cc(CNCCc3cccnc3)nc3c2ccc2c(-c4ccccc4)cc(CNCCc4cccnc4)nc23)cc1 (as salt: ammonium) [Compound 1n] | 164 to 166 | –
15 | c1ccc(-c2cc(CNCCc3ccncc3)nc3c2ccc2c(-c4ccccc4)cc(CNCCc4ccncc4)nc23)cc1 (as salt: ammonium) [Compound 1o] | 147 to 149 | –
16 | c1ccc(-c2cc(CNCCCc3ccncc3)nc3c2ccc2c(-c4ccccc4)cc(CNCCCc4ccncc4)nc23)cc1 (as salt: ammonium) [Compound 1p] | 99 to 101 | –
17 | C[C@@H]1[C@H](O)[C@@H](C)/C=C/C=C/C=C/C=C/C=C/C=C/C=C/[C@H](O[C@@H]2O[C@H](C)[C@@H](O)[C@H](N)[C@@H]2O)C[C@@H]2O[C@](O)(C[C@@H](O)C[C@@H](O)[C@H](O)CC[C@@H](O)C[C@@H](O)CC(=O)O[C@H]1C)C[C@H](O)[C@H]2C(=O)O [Amphotericin B, reference compound] | – | IC50 [1]: 100 ± 40 nM
18 | CSc1ccc(OCc2ncc([N+](=O)[O-])n2C)cc1 [Fexinidazole, reference compound] | – | IC50 [2]: 590 ± 39 nM
19 | Cc1ccc(C(=O)Nc2ccc(S(=O)(=O)O)c3cc(S(=O)(=O)O)cc(S(=O)(=O)O)c23)cc1NC(=O)c1cccc(NC(=O)Nc2cccc(C(=O)Nc3cc(C(=O)Nc4ccc(S(=O)(=O)O)c5cc(S(=O)(=O)O)cc(S(=O)(=O)O)c45)ccc3C)c2)c1 [Suramine, reference compound] | – | IC50 [2]: 30 ± 3 nM
